In brackets after ≈: the same amount, converted by molar mass.
How the values were obtained:
MRSA USA300 [1] = experiment: Checkered board synergy assay with gentamicin; assay type: cell-based, Staphylococcus aureus
Method: (§1) An amount of 100 µL of [R4W4] peptide test solution at a final concentration of 512 µg/mL was added to each well A-G column 1 in plate A using a multi-channel pipette. A 50 µL MH Broth was added to micro-plate well A-G columns 2–9. Using a multi-channel pipette, a two-fold serial dilution was performed by removing 50 µL solution from column 1 and was added to column 2 with thorough mixing. The micro-pipette was discarded after each transfer. The last portion after column 9 was discarded. In another microplate, 100 µL MHB was added to well B-G columns 1–11 using a multi-channel pipette. A 200 µL gentamicin test solution 512 µg/mL was added to row A, columns 1–11. A two-fold serial dilution was performed by removing 100 µL from rows A to B. The last portion was discarded. Using eight multi-channel pipettes, 50 µL of gentamicin test solution was transferred in the ordinate column A-G row 1 to the first microplate. The plate was incubated at 37 °C for 18–24 h. The fractional inhibitory concentration (FIC) of the antibacterial agents and the fractional inhibitory concentration index (FICI) of the two antibacterial agents were determined to evaluate the synergistic interaction. The FICI was interpreted as follows: FICI ≤ 0.5, synergy; 0.5 < FICI ≤ 1, partial synergy; 1 ≤ FICI < 4, additive effect or indifference; 4 ≤ FICI antagonism and calculated from the mean values from multiple experiments.

E. coli 25922 = experiment: Checkered board synergy assay with gentamicin; assay type: cell-based, Escherichia coli
Method: as §1

MRSA USA300 [2] = experiment: microbe, parasite or virus in culture
Method: MRSA USA300 bacteria from −80 °C freezer stock were cultured on an LB agar plate overnight. One bacteria colony was added to a 6 mL fresh MHB with constant shaking at 200 rpm at 37 °C. The bacteria were transferred daily by inoculating 10 μL of stationary-phase culture into […] of MHB in a 1 mL cap-clipped Eppendorf tube. Then, 20 μL of bacteria aliquot was added to […] of MHB broth, with or without [R4W4], at a final concentration of the MIC overnight in an […] at 37 °C for five transfers. […] […] Experiments were performed in triplicates. Every time we increased the concentration of [R4W4], a sample of the induction generation was inoculated into 20% (vol/vol) glycerol and stored at −70 °C. The final MIC values of [R4W4], vancomycin, and levofloxacin were determined by modified microbroth dilution assay.

MRSA USA300 [3] = experiment: microbe, parasite or virus in culture; conditions: MRSA USA300, overnight 37 °C, duplicate
Method: The interaction of [R4W4], melittin, and vancomycin with LTA in the presence of MRSA was determined using a microbroth dilution assay. Two-fold serial dilution was used to achieve a 100 μL final concentration of the antibacterial agents in a 96 microplate well. A 360 μL S. aureus LTA (Sigma Aldrich stock 5 mg/mL) was added to 17.64 mL MHB containing MRSA (5 x 10^5 CFU/mL) to achieve the final concentration of S. aureus LTA 100 μg/mL. Then, 100 μL aliquots of MHB (MRSA (5 × 10^5 CFU/mL) and 100 μg/mL S. aureus LTA) were added to the 96 microtiter wells containing the antibacterial agents. The microplate was incubated overnight at 37 °C to obtain the MICs. Controls were bacteria grown in the presence of LTA alone and in MHB alone.

CNC(C)C1CCC(N)C(OC2C(N)CC(N)C(OC3OCC(C)(O)C(NC)C3O)C2O)O1 (stereo not shown) [Gentamicin, gentamicin, reference compound]
MIC(B+A) (gentamicin in combination with [R4W4]) (MRSA USA300 [1]; MRSA USA300, checkered board): 0.05 µg/mL
MICB (gentamicin alone) (MRSA USA300 [1]; MRSA USA300, checkered board): 0.09 µg/mL
FICB (MRSA USA300 [1]; MRSA USA300, fractional inhibitory concentration of gentamicin): 0.56
reduction in MIC value in combination (MRSA USA300 [1]; MRSA, [R4W4] + gentamicin combination versus alone): ~ 2 fold
MIC(B+A) (gentamicin in combination with [R4W4]) (E. coli 25922; E. coli 25922, checkered board): 0.19 µg/mL
MICB (gentamicin alone) (E. coli 25922; E. coli 25922, checkered board): 0.75 µg/mL
FICB (E. coli 25922; E. coli 25922, fractional inhibitory concentration of gentamicin): 0.25
reduction in MIC value in combination (E. coli 25922; E. coli, [R4W4] + gentamicin combination versus alone): approximately 4 fold

C[C@H]1COc2c(N3CCN(C)CC3)c(F)cc3c(=O)c(C(=O)O)cn1c23 [levofloxacin, Levofloxacin]
MIC against index isolate (no serial passage) (MRSA USA300 [2]; MRSA USA300 index strain, MIC in duplicate): 1 µg/mL (≈ 2.77 µM)
change in MIC after serial passage (MRSA USA300 [2]; MRSA USA300 passaged versus index strain): 2 folds
MIC (MRSA USA300 [2]; Staphylococcus aureus, MRSA|USA300, read-out: MIC against serial passaged [R4W4]-resistant isolate): 2 µg/mL (≈ 5.53 µM)

CC[C@H](C)[C@H](NC(=O)CN)C(=O)NCC(=O)N[C@@H](C)C(=O)N[C@H](C(=O)N[C@@H](CC(C)C)C(=O)N[C@@H](CCCCN)C(=O)N[C@H](C(=O)N[C@@H](CC(C)C)C(=O)N[C@H](C(=O)N[C@H](C(=O)NCC(=O)N[C@@H](CC(C)C)C(=O)N1CCC[C@H]1C(=O)N[C@@H](C)C(=O)N[C@@H](CC(C)C)C(=O)N[C@H](C(=O)N[C@@H](CO)C(=O)N[C@@H](Cc1c[nH]c2ccccc12)C(=O)N[C@H](C(=O)N[C@@H](CCCCN)C(=O)N[C@@H](CCCNC(=N)N)C(=O)N[C@@H](CCCCN)C(=O)N[C@@H](CCCNC(=N)N)C(=O)N[C@@H](CCC(N)=O)C(=O)N[C@@H](CCC(N)=O)C(N)=O)[C@@H](C)CC)[C@@H](C)CC)[C@@H](C)O)[C@@H](C)O)C(C)C)C(C)C [melittin, reference compound]
MIC in the presence of LTA (MRSA USA300 [3]; 100 μg/mL S. aureus LTA in MHB): 32 µg/mL
MIC in the absence of LTA (MRSA USA300 [3]; MHB): 8 µg/mL
